Results: patent publication US11231410B2, “Method for identifying a compound useful in mitigating and/or the treatment of a disease associated with abnormal astrocytic function” (Celica BIOMEDICAL, priority 2015, dated 2022)
Where two headings read alike, the source gives them in different places.

Legend:
[1] = biological target: human HCAR1 (GPR81) (Homo sapiens, UniProt Q9BXC0); details: cited from earlier work; for EC50 (in words): Dvorak et al. 2012, qualitative statement; for agonist activity at GPR81: Dvorak et al. 2012; for EC50: receptor activation, value from Dvorak et al. 2012
Chain of human HCAR1 (GPR81) (Q9BXC0 whole entry): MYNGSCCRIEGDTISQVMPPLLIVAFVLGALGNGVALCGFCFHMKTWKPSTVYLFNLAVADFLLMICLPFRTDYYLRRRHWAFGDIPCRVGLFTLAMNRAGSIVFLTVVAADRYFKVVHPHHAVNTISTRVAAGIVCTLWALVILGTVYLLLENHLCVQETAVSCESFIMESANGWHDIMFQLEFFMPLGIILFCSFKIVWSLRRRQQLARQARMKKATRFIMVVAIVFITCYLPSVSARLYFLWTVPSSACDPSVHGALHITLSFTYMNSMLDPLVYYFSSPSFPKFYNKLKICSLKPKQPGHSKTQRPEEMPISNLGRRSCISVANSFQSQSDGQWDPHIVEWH

[2] = biological target: T1, GPR81 (Rattus norvegicus, UniProt B9UM24); details: from European Patent Application No. 13 173 446, cited from earlier work
T1 construct: endogenous in cells; host or cells: cultured primary rat astrocytes transfected only with the cAMP sensors Epac1-camps or AKAR2
T1 sequence (B9UM24 1-351): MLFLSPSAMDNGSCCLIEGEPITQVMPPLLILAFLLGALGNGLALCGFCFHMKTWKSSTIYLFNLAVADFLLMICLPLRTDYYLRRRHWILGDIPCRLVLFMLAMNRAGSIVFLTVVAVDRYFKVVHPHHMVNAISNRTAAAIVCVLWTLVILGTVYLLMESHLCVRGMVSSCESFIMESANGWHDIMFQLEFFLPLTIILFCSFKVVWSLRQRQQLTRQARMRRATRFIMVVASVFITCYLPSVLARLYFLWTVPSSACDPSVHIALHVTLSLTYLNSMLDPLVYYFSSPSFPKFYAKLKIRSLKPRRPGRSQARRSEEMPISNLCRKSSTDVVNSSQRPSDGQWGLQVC

[3] = biological target: T1, GPR81; assay: FRET nano-sensor (Epac1-camps / AKAR2) measurement of cytosolic cAMP in single cultured astrocytes, GPR81 ligands; format: cell-based; details: for n decrease (cells with cAMP decrease): number of astrocytes responding with cAMP decrease; for n increase (cells with cAMP increase): number of astrocytes responding with cAMP increase; for n unresponsive (cells): number of unresponsive astrocytes; for % decrease (cells with cAMP decrease) / % increase (cells with cAMP increase) / % unresponsive (cells): share of all astrocytes tested; for responsiveness of cells (cAMP): compared with the high affinity molecule 3cl5hi
Description: (§1) As described in the previous European Patent Application No. 13 173 446, the cAMP level may, be determined by fluorescence nano-sensors in the astrocyte. In particular, the cAMP level may be determined by expressing the plasmid for FRET construct Epac1-camps or AKAR2. FRET signal is reported as the ratio of YFP to CFP fluorescence signal. The change in FRET signals reflects change in [cAMP]i. The inventions comprises of using MD and cAMP measurements.
(§2) As described in the previous European Patent Application No. 13 173 446, the cAMP level may, for instance, be determined by fluorescence nano-sensors in the astrocyte. In particular, the cAMP level may be determined by expressing the plasmid for FRET construct Epac1-camps or AKAR2. FRET construct are examined with immersion objective for fluorescent light and confocal microscope or other fluorescent microscope. Cells were excited at 458 nm or other suitable excitation wavelength of light and images are acquired every time interval. Emission spectra are collected from spectral detector or other suitable wavelength of light. Two-channel (CFP and YFP) images are generated from light detector. YFP and CFP fluorescence intensities are quantified within a region of interest selected for individual cell expressing Epac1-camps or AKAR2 using software. FRET signal is reported as the ratio of YFP to CFP fluorescence signal after subtracting the background fluorescence from both YFP and CFP signals. The change in FRET signals reflects change in [cAMP]i.
(§3) Cultured astrocytes, e.g. isolated as previously described by Schwartz & Wilson (Glia. 1992; 5(1):75-80) or any other cell type isolated from animal tissues or clonal cell lines derived from human or animal sources are seeded onto coverslips and maintained in an adequate cell cultured medium. All chemicals were from Sigma Aldrich (St. Louis, Mo., USA) unless otherwise noted.
(§4) Astrocytes expressing Epac1-camps or AKAR2 FRET construct were examined with a Plan NeoFluoar 40×/1.3 Oil DIC immersion objective (Carl Zeiss, Jena, Germany) and 2-fold zoom factor using Zeiss LSM510 META confocal microscope (Carl Zeiss, Jena, Germany). Cells were excited at 458 nm and images (512×512) were acquired every 3.5 s or 7 s using Lambda stack acquisition. Emission spectra were collected from META detector in eight channels (lambda stack) ranging from 470 nm to 545 nm, each with a 10.7-nm width. Two-channel (CFP and YFP) images were generated from lambda stacks by analytical software “Extract channels”. Channels with emission spectra 470- and 481-nm and emission spectra 513-, 524-, and 534-nm were extracted to CFP channel and YFP channel, respectively. YFP and CFP fluorescence intensities were quantified within a region of interest selected for individual cell expressing Epac1-camps or AKAR2 using LSM 510 META software. In the graphs, FRET signal is reported as the ratio of YFP to CFP fluorescence signal after subtracting the background fluorescence from both YFP and CFP signals using Sigma Plot.
(§5) The values of FRET signals were normalized (set to 1.0) at the onset of the experiments and averaged. The decrease in FRET signals in Epac1-camps experiments reflects an increase in [cAMP]i and the increase in FRET signals in AKAR2 experiments reflects increase in [cAMP]i.
(§6) Initially, astrocytes were kept in standard extracellular solution (10 mM Hepes/NaOH, pH 7.2, 10 mM D-glucose, 131.8 mM NaCl, 1.8 mM CaCl2, 2 mM MgCl2, and 5 mM KCl) and then treated with various reagents following a 100 s baseline.

[4] = system: Adrener.; assay: FRET nano-sensor measurement of cytosolic cAMP in single cultured astrocytes, adrenergic stimulus; format: cell-based, rat
Description: as §1, §2, §3, §4, §5, §6

[5] = biological target: human HCA1 (Homo sapiens, UniProt Q9BXC0); details: compared versus HCA2, Liu et al. 2012; cited from earlier work
Chain of human HCA1 (Q9BXC0 whole entry): as the sequence (Q9BXC0 whole entry) above

Compound | EC50 (in words) [1] | n decrease (cells with cAMP decrease) [3] | n increase (cells with cAMP increase) [3] | n unresponsive (cells) [3] | % decrease (cells with cAMP decrease) [3] | % increase (cells with cAMP increase) [3] | % unresponsive (cells) [3] [%] | other results
O=C(O)c1cc(O)cc(Cl)c1 [Ligand 3cl5hi, 3-chloro-5-hydroxybenzoic acid, reference compound] | relatively low EC50 | 0 (0%) | 21 | 14 | 0 (0%) | (60%) | 40 | agonist activity at GPR81 [1]: agonists; intracellular cAMP levels in astrocytes (FRET ratio YFP/CFP) ([2]; 500 μM 3-Cl-5-HBA, AKAR2 sensor, FIG. 9d): increases intracellular cAMP levels
O=C(O)c1cc(O)cc(F)c1 [Ligand 3f5hi, 3-fluoro-5-hydroxybenzoic acid, reference compound] | relatively low EC50 | – | – | – | – | – | – | agonist activity at GPR81 [1]: agonists
NC[C@H](O)c1ccc(O)c(O)c1 [Norepinephrine] | – | – | – | – | – | – | – | n decrease (cells with cAMP decrease) ([4]; number of astrocytes responding with cAMP decrease): 0 (0%); n increase (cells with cAMP increase) ([4]; number of astrocytes responding with cAMP increase): 11; n unresponsive (cells) ([4]; number of unresponsive astrocytes): 3; % decrease (cells with cAMP decrease) ([4]; share of all astrocytes tested): 0 (0%); % increase (cells with cAMP increase) ([4]; share of all astrocytes tested): (79%); % unresponsive (cells) ([4]; share of all astrocytes tested): 21%
CC(C)(C)c1cc(O)cc(C(=O)O)c1 [but, 3-tertbutyl-5-hydroxybenzoic acid] | relatively high EC50 | 4 | 29 | 6 | 10% | (75%) | 15 | EC50 [1]: > 1 mM; responsiveness of cells (cAMP) [3]: responded much better
COc1cc(O)cc(C(=O)O)c1 [metoxi, 3-methoxy-5-hydroxybenzoic acid] | relatively high EC50 | 3 | 34 | 15 | 6% | (65%) | 29 | EC50 [1]: > 1 mM; responsiveness of cells (cAMP) [3]: responded much better
O=C(O)c1cc(O)cc(O)c1 [oh, 3,5-dihydroxybenzoic acid] | – | – | – | – | – | – | – | selectivity for human HCA1 [5]: selective agonist
O=C(O)c1cc(O)cc(-c2ccccc2)c1 [ph, 3-phenyl-5-hydroxybenzoic acid] | relatively high EC50 | – | – | – | – | – | – | –
Lactic acid/lactate [lakta] | – | – | – | – | – | – | – | intracellular cAMP levels in astrocytes (FRET ratio YFP/CFP) ([2]; 20 mM lactate, Epac1-camps and AKAR2 sensors, FIG. 9b-c): increases intracellular cAMP levels
